For assay [1], the system named is endothelial cells. Put plainly: I125-VEGF binding to endothelial cells in the presence of peptide. The assay is classed as cell-based. The protocol:
(§1) 10000 cells were incubated in binding buffer containing 20 mM Hepes, 0.1% BSA and I^125-VEGF (12 ng/ml) for 3 h on ice.
(§2) In order to characterize the effect of the peptides on VEGF binding to endothelial and melanoma cells, the cells were incubated with various peptides (720 μg/ml) in the presence of I^125-VEGF (12 ng/ml) (FIG. 2). Peptide #237 increased VEGF binding to endothelial as well to melanoma cells. 10000 cells were incubated in binding buffer containing 20 mM Hepes, 0.1% BSA and I^125-VEGF (12 ng/ml) for 3 h on ice. Following 3 washings, the radioactive levels were determined by gamma counter. An increase of more than 25 times in I^125-VEGF binding was observed when peptide #237 was added to both kinds of cells. The other prominin-1 peptides examined had no effect on VEGF binding to endothelial cells.
Each of these peptides were tested for VEGF binding to endothelial cells and compared to peptide #237 at varying dilutions. The results are indicated herein in FIG. 7.
The inventors also investigated which amino acid residues in peptide #237 are important for the various angiogenic and VEGF related binding activity described herein. To achieve this, the inventors singly changed each of the 12 amino acid residues in peptide #237 to alanine and performed experiments examining the effect of the alanine substitution at various positions on endothelial cell binding to VEGF. A total of 12 alanine substituted peptides were made and tested: Ala-1, Ala-2, Ala-3, Ala-4, Ala-5, Ala-6, Ala-7, Ala-8, Ala-9, Ala-10, Ala-11, Ala-12, (SEQ. ID. NOS. 38-41, 3, 11, 42-47) wherein the number indicate the position where the alanine substitution occurred. In addition, a “flip #237” peptide having the sequence AAVVTTTQRQVRD (SEQ. ID. NO. 22) was also made and studied.

For assay [2], the system named is ear wound. Put plainly: ear punch wound healing model. The format is in vivo, mouse. Particulars: for wound closure versus control (peptide #237): intraperitoneal treatment, C57BL mouse.
Assay [3] has as its system ear wound neovascularization. Put plainly: ear wound neovascularization model. Particulars: matrigel containing 180 μg peptide daily for 5 days; 2.25 mm punch; versus plain matrigel. The format is in vivo, nude mouse. The protocol: Microvascular in-growth into damaged tissue is an essential component of the normal healing process. In fact, wound therapy is often aimed at promoting neovascularization. The model consists of wounding the dorsal aspect of the ear of a nude mouse. A circular punch was used to create a standardized wound on a nude mouse ear. Constant diameter of wound is given by the size of the punch (2.25 mm), and the ears were treated daily with plain matrigel (FIG. 6A) or matrigel containing peptide #237 (180 μg) (FIG. 6B) for 5 days. […] In order to evaluate the wound neovascularization, the mice were inoculated by dextran-FITC which specifically labeled the endothelial cells, immediately after anesthetizing them.

For assay [4], the system named is cornea neovascularization. The assay is described as follows: corneal micropocket assay with VEGF pellet. The format is in vivo, mouse. Conditions: pellet 160 ng VEGF 165 + 1.3 ug #237; 5 days. On the procedure:
Vigorous vessel in-growth from the limbus at 5 days was recorded as a positive response.
In order to evaluate the modulating effect of peptide #237 on the angiogenesis process, a corneal micropocket assay was performed. Two kinds of pellets were created, both containing 160 ng carrier-free recombinant human VEGF 165 (R&D Systems, Minneapolis, Minn.), one of which contains 1.3 ug of #237 peptide. The pellets were implanted into micropockets created in the cornea of two groups of anesthetized mice (n=4). Through the use of standardized slow-release pellets, a predictable angiogenic response is generated over the course of 5 days and then quantified. The area of neovascularization was calculated as vessel area, which is calculated as the product of vessel length measured from the limbus and clock hours around the cornea, using the following equation: vessel area (mm^2)=[clock hours×vessel length (mm)×0.2 mm]. […] The in vivo experiment confirms that the peptide stimulates cell proliferation, and is therefore a good candidate to induce angiogenesis.

Assay [5] deals with endothelial cells. Put plainly: Matrigel assay of endothelial cell migration in vivo (FACS of matrigel liberated cells). Further details: species or system C57bl mice. Particulars: day 6; for endothelial cells among matrigel liberated cells (FACS, CD31): Matrigel with 500 ng VEGF, with or without 180 μg #237. The protocol: On day 6, animals were sacrificed and fluorescence-activated cell sorting (FACS) analysis was used for determination of the matrigel liberated cells. In order to distinguish the endothelial cells from hematopoietic cells, the cells were incubated with two antibodies CD31-PE and CD45-APC which are specific to endothelial cells and hematopoietic cells respectively.

Assay [6] has as its system B16-F10 melanoma cells. The assay is described as follows: I125-VEGF binding to melanoma cells in the presence of peptide. Conditions: peptide 720 μg/ml, I125-VEGF 12 ng/ml, 3 h on ice. The format is cell-based. The protocol:
as §1, §2

The subject of assay [7] is ischemic hind limb blood flow. Put plainly: hind limb ischemia model, intraperitoneal administration (Example 12). Conditions: for limb perfusion: intraperitoneally immediately following femoral artery occlusion, within three to six days. The format is in vivo, mouse. On the procedure:
Mice were ligated in one of their femoral arteries (the […]) to simulate hind limb ischemia. The blood flow was analyzed by machine for each mouse before and immediately after the procedure to evaluate if the femoral was ligated properly. Blood flow was compared with the non-operated leg by a laser Doppler imager. […] The ischemic limb is seen as the limb on left side in the laser Doppler images.
Representative evaluation of the ischemic (left side of each image) and non-ischemic (right side of each image) hind limbs, immediately after, and on days 4 and 14 after surgery. In FIG. 11, the white areas indicate normal perfusion with normal blood circulation and black areas indicate no blood flow in the ischemic left hind limb. […] Dark shaded areas within the white areas located at the distal ends of the limbs indicate […].
The blood flow of the ischemic hind limb is expressed as the ratio between the perfusion of the ischemic limb and the uninjured limb in FIG. 12.

For assay [8], the system named is ischemic hind limb blood flow. Put plainly: hind limb ischemia model, local injection or pump (Example 11). The assay is classed as in vivo, mouse. Conditions: after 48 h. The protocol: FIG. 10A are laser doppler images showing the effects of direct injection of either saline or peptide #237 to the ischemic site (800 μg) in a mouse hind limb ischemia model. Mice were ligated in both of their femoral arteries to simulate hind limb ischemia. The blood flow in mice was analyzed by machine for each mouse before and immediately after the procedure to evaluate if the femoral was ligated properly. (Note that amino acid 12 of SEQ. ID. NO: 1 is alanine; this amino acid was substituted with […] in the Ala-12 substitution variant.)
FIG. 10B are laser doppler images showing the effects of injection by pumps of either the saline or peptide #237 to the ischemic site (800 μg) in a mouse hind limb ischemia model. Just the left femoral artery was ligated to simulate hind limb ischemia. Mice from group B were treated systemically by pumps that were implanted to the mouse's back one day prior to the procedure. […] The blood flow was analyzed by machine for each mouse before and immediately after the procedure to evaluate if the femoral was ligated properly. […]
The angiogenic effects of peptide #237 were investigated using the mouse hind limb ischemia model. […] The blood flow was analyzed by Laser Doppler perfusion imagery machine for each mouse before and immediately after the procedure to evaluate if the femoral was ligated properly. […]

Consider DAVQRQTTTVVA [Ala-2], for which, in assay [1], the “VEGF binding to endothelial cells over control levels (absence of any peptide)” value is “promote VEGF binding to endothelial cells over control levels”.

As to DRAQRQTTTVVA [Ala-3], the “VEGF binding to endothelial cells over control levels (absence of any peptide)” value in assay [1] is given as “promote VEGF binding to endothelial cells over control levels”.

With DRVARQTTTVVA [Ala-4], in assay [1], the “VEGF binding to endothelial cells over control levels (absence of any peptide)” value is “promote VEGF binding to endothelial cells over control levels”.

On to DRVQAQTTTVVA [Ala-5], for which, in assay [1], the “VEGF binding to endothelial cells over control levels (absence of any peptide)” value is given as “promote VEGF binding to endothelial cells over control levels”. In addition, in assay [1] (alanine substitution screen), the “ability of endothelial cells to bind VEGF compared to original #237” value is “more than twice”.

As for DRVQMQTTTVVA [#237-M], the “VEGF binding to endothelial cells over control levels (absence of any peptide)” value in assay [1] was “promote VEGF binding to endothelial cells over control levels”. The “wound closure versus control (peptide #237)” value (“wound closure versus control” below) in assay [2] is recorded as “significantly more wound closure”.

With DRVQQQTTTVVA [#237-Q], the “VEGF binding to endothelial cells over control levels (absence of any peptide)” value in assay [1] is reported as “promote VEGF binding to endothelial cells over control levels”. Further, the “wound closure versus control” value in assay [2] is listed as “significantly more wound closure”.

For DRVQRATTTVVA [Ala-6], the “VEGF binding to endothelial cells over control levels (absence of any peptide)” value in assay [1] was “promote VEGF binding to endothelial cells over control levels”.

DRVQRQATTVVA [Ala-7]: the “VEGF binding to endothelial cells over control levels (absence of any peptide)” value in assay [1] is listed as “promote VEGF binding to endothelial cells over control levels”.

On to “DRVQRQTTTVVA (listed as Homo sapiens) [#237]”, for which the “neovascularization around the ear wound site” value in assay [3] was “significantly increased the neovascularization”. For the same substance, the “increase in vessel density versus pellet without peptide” value in assay [4] is on record as 53%. Moreover, the “endothelial cells relative to VEGF alone” value in assay [5] (180 ug #237 added to the VEGF) is reported as “six times more”. Besides, the “endothelial cells among matrigel liberated cells (FACS, CD31)” value in assay [5] was determined as 0.42%. Also, the “increase in I125-VEGF binding” value is on record as “more than 25 times” in assay [6] and “more than 25 times” in assay [1] (endothelial cells, peptide 720 μg/ml, I125-VEGF 12 ng/ml, 3 h on ice). For the same substance, the “VEGF binding to endothelial cells over control levels (absence of any peptide)” value in assay [1] is listed as “promote VEGF binding to endothelial cells over control levels”. For the same substance, in assay [7] (days 4 and 14 after surgery), the “blood flow recovery compared to saline treated mice (laser Doppler images)” value is recorded as “increased blood flow recovery”. For the same substance, the limb perfusion entry in assay [7] is on record as “significantly improves limb perfusion”. In addition, the “recovery of the blood flow in the ischemic site” value in assay [8] (local injection to the ischemic site (800 ug)) and in assay [8] (slow release via pump 0.5 ug/hour) was “complete recovery of the blood flow” throughout. Also, the “wound area versus untreated mice” value in assay [2] (MATRIGEL containing peptide daily for 14 days, day 14, 1 mm wound) was “significantly smaller”.

With “DRVQRQTTTVVG [Ala-12, glycine substitution at position 12, which is naturally alanine]”, the “VEGF binding to endothelial cells over control levels (absence of any peptide)” value in assay [1] was “promote VEGF binding to endothelial cells over control levels”.

For DRVQVQTTTVVA [#237-V], the “VEGF binding to endothelial cells over control levels (absence of any peptide)” value in assay [1] was “promote VEGF binding to endothelial cells over control levels”. Further, in assay [7], the limb perfusion result was “significantly improves limb perfusion”. For the same substance, the “wound closure versus control” value in assay [2] is recorded as “significantly more wound closure”.

For the substance RVQRQTTTVVAG, the “VEGF binding to endothelial cells over control levels (absence of any peptide)” value in assay [1] is recorded as “promote VEGF binding to endothelial cells over control levels”.

Regarding VEGF, the “endothelial cells among matrigel liberated cells (FACS, CD31)” value in assay [5] is recorded as 0.07%.

In the case of VQRQTTTVVAGI, the “VEGF binding to endothelial cells over control levels (absence of any peptide)” value in assay [1] is reported as “promote VEGF binding to endothelial cells over control levels”.

The record behind these values is US10286032B2, “Pro-angiogenic fragments of prominin-1 and uses thereof” (Children's Medical Center Corporation, priority 2010, dated 2019).
